PubChem BioAssay AID602267 (Broad Institute, 2012)
Active and inactive are the calls of the source.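 Rule for the calls: active = signal falls with dose and the fitted half-maximal concentration is at or below twice the top valid tested dose; inconclusive = flat curve with 30 to 70% inhibition, or poor fit; inactive = wrong direction, flat within 30%, or potency beyond limit.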

Each compound was assayed against Golgi-associated PDZ and coiled-coil motif-containing protein (Homo sapiens) (UniProt Q9HD26) (assay: CAL PDZ domain peptide-binding inhibitors, dose response, biochemical, fluorescence polarization, untagged CAL PDZ, cherry-pick (AID 602267)). Conditions: purified CAL PDZ, TMR-peptide fluorescence polarization, 1 h.

Structure (SMILES)	AC50
COc1ccc(S(=O)(=O)Nc2cc(SCC(=O)O)c(O)c3ccccc23)cc1	34.2 µM

Same assay, conditions: purified CAL PDZ, TMR-peptide fluorescence polarization, 1 h; at 16 µM (top of the series)

Structure (SMILES)	activity change, negative = inhibition
c1ccc(C2Nc3ccccc3Oc3ccccc32)cc1 (stereo not given)	inactive
COc1cc(C2NC(=O)NC(C)=C2C(=O)OC2CCCCC2)cc(Br)c1O (stereo not given)	inactive
COc1ccc(N2CCN(C(=O)c3cccc4nc(C)oc34)CC2)cc1	inactive

Same assay, conditions: purified CAL PDZ, TMR-peptide fluorescence polarization, 1 h; at 50 µM (top of the series)

Structure (SMILES)	activity change, negative = inhibition
C=CCn1c(NC(=O)c2ccco2)nc2ccccc21	inactive
O=C(COc1ccc(Cl)cc1Cl)Nc1nnc(C2=COCCO2)o1	inactive
Cc1cccc(N(Cc2cc(=O)[nH]c3ccccc23)C(=O)C(C)C)c1	inactive
COc1cc(OC)cc(C(=O)N[C@H](C(=O)Nc2nc3ccc(S(C)(=O)=O)cc3s2)C(C)C)c1	inactive
CC(C)OC(=O)C1CC(C)(O)C(=O)C(C(=O)OC(C)C)C1c1ccc([N+](=O)[O-])cc1 (stereo not given)	inactive
COc1cc(C)cc(CN2CC=C(c3ccccc3)CC2)c1O	inactive
Cc1cccc(-n2nc(C)c3c2NC2=C(C(=O)CCC2)C3c2ccccn2)c1 (stereo not given)	inactive
NS(=O)(=O)c1ccc(N2N=C(c3ccccc3)CC2c2ccccc2)cc1 (stereo not given)	inactive
O=C(c1cccs1)N1CCN(C(=O)N2CCOCC2)CC1	inactive
COc1ccc(Oc2nc3c(c(=O)n(C)c(=O)n3C)n2C)cc1	inactive
O=C(c1ccc(F)cc1Cl)N1CCC2(CC1)OCCO2	inactive
O=C(C=Cc1ccccc1)c1cc(Br)ccc1O	inactive
Cc1ccc(C(=O)NC(=S)N2CCN(c3cc(C)ccc3C)CC2)cc1	inactive
CCN(CC(=O)Nc1cc(Cl)cc(Cl)c1)CC(=O)NC1CCS(=O)(=O)C1 (stereo not given)	inactive
CC(O)CNCCCOc1cccc(Oc2ccccc2)c1 (stereo not given)	inactive
S=C(NCCc1ccccc1)N1CCn2cccc2C1c1cccnc1 (stereo not given)	inactive
Cc1cc(/C=C2\SC(=O)N(C)C2=O)c(C)n1-c1ccc(O)cc1	inactive
Cn1c(=O)c2c(nc(SCC(=O)NCC3CCCO3)n2Cc2ccc(F)cc2)n(C)c1=O (stereo not given)	inactive
CCNS(=O)(=O)c1ccc(CCC(=O)N2CCCC2)cc1	inactive
COc1cc(S(=O)(=O)n2nc(C)cc2C)ccc1Cl	inactive
COc1ccccc1NC(=O)c1c([N+](=O)[O-])cnn1C	inactive
O=P(O)(COc1ccccc1)COc1ccccc1	inactive
CCOc1ccc(NC(=O)c2nsc(Cl)c2Cl)cc1	inactive

Structure (SMILES)	activity change, negative = inhibition
Cc1cc(NC(=O)CSc2nnc(-c3ccccc3)c(-c3ccccc3)n2)no1	inactive
CCOc1ccc(S(=O)(=O)N2CCCCC2)c(C)c1C	inactive
COc1ccc(Nc2cccccc2=O)cc1	inactive
Cc1cccc(CN2CCc3c([nH]c4ccccc34)C2CC(C)C)n1 (stereo not given)	inactive
COCC(=O)NNC(=O)c1ccc(OC)cc1	inactive
COc1ccc(C(=O)Nc2ccc(S(=O)(=O)N3CCCC3)cc2)cc1[N+](=O)[O-]	inactive
CCCCNC(=S)NNc1c(Cl)cc(Cl)cc1Cl	inactive
C=CCOC(=O)C1=C(C)Nc2nc3ccccc3n2C1c1ccncc1 (stereo not given)	inactive
CCOC(=O)/C(N=Nc1ccc2c(c1)OCO2)=C(\C)O	inactive
COc1ccc(CCn2c(=S)[nH]c3ccc(N4CCOCC4)cc3c2=O)cc1OC	inactive
O=C(NCc1ccccc1)C1CCCN(c2nc3ccsc3c(=O)s2)C1 (stereo not given)	inactive
CCOC(=O)c1nc(NCCc2ccccc2)sc1C	inactive
O=C1c2ccccc2C(=O)N1CSc1nnnn1-c1ccccc1	inactive
CC1=C(C#N)C(Nc2ccc(Cl)cn2)(C(F)(F)F)C(=O)N1 (stereo not given)	inactive
CS(=O)(=O)N(CC(=O)N1CCOCC1)c1cccc(F)c1	inactive
CC(=O)Nc1ccc(Nc2ccc3nonc3c2[N+](=O)[O-])cc1	inactive
Cc1cc(=O)n2c3ccccc3n(CC(O)CN3CCN(CCO)CC3)c2c1C#N (stereo not given)	inactive
CSC1=NP(=S)(SC)N2CCCC2=C1C#N (stereo not given)	inactive
CCC(=O)c1ccc(N2CCC(C)CC2)c(F)c1	inactive
CCCCNC(=O)c1ccc(-n2c(=S)[nH]c3ccccc3c2=O)cc1	inactive
COCCCNC(=O)c1cc(S(=O)(=O)N2CCOCC2)ccc1SCc1cccc(OC)c1OC	inactive
O=C(NCC(=O)N1CCC(N2CCCCC2)CC1)C1CCCCC1	inactive
Nc1nc2ccccc2cc1S(=O)(=O)c1ccccc1	inactive

Structure (SMILES)	activity change, negative = inhibition
CC(CCCC(C)(C)O)NC(=O)c1ccc(OC2CCN(C(=O)C3CC3)CC2)cc1 (stereo not given)	inactive
COc1cc(Cl)c(CN2CCCC(CO)(Cc3cccc(Cl)c3)C2)cc1OC (stereo not given)	inactive
Cc1ccc(NC(=O)N2CCCC2C(=O)NCC2CCCO2)cc1 (stereo not given)	inactive
N#Cc1ccc(CC(=O)c2ccccc2)[nH]c1=O	inactive
O=C(NC(=S)NCCCN1CCOCC1)c1ccc(Br)cc1	inactive
COCCN(C(=S)Nc1ccccc1OC)C1CCN(C(C)C)CC1	inactive
CCc1ccc(C2CC(=O)N(c3cccc(F)c3)C3=C2C(=O)OC3)cc1 (stereo not given)	inactive
Cc1ccc(NC(=O)CN(C)C(=S)NC2CC2)cc1	inactive
Cc1ccc(CN(Cc2cccnc2)C(=S)Nc2cccc(Cl)c2C)cc1	inactive
O=C(COc1ccccc1)N1CCCCCCC1	inactive
CCCC(=O)OCC(=O)Nc1ccccc1C#N	inactive
Cc1c(C)c2cc3c4c(oc3c(C)c2oc1=O)CCCC4	inactive
CCCOc1ccc(CC(=O)N/N=C\c2ccc(F)cc2)cc1	inactive
COc1ccccc1Oc1coc2cc(OC(=O)N3CCOCC3)ccc2c1=O	inactive
Cc1ccc(F)cc1N=Cc1c(O)c2ccccc2oc1=O	inactive
CCOC(=O)c1c(CN2CCOCC2)oc2ccc(OC(C)=O)cc12	inactive
Cc1ccc(-c2nnn(CC(=O)N(CCN3CCOCC3)C(C(=O)NC(C)(C)C)c3ccc(C)o3)n2)cc1 (stereo not given)	inactive
CCCCN1CC(O)=C(c2nc(-c3ccc(Cl)cc3)cs2)C1=N	inactive
Cc1ccnc2nc(C(=O)OCCOc3ccc(F)cc3)nn12	inactive
OC(c1ccccc1)(c1ccccc1)c1nccc2ccccc12	inactive
CC(C)(C)c1nn(-c2ccccc2)c2[nH]c(=O)c(C=O)cc12	inactive
Oc1ccc(C=Nc2cccc3ccccc23)c(O)c1	inactive
C/C(=N/N1CCN(c2ccccn2)CC1)c1ccc([N+](=O)[O-])cc1	inactive

Structure (SMILES)	activity change, negative = inhibition
COc1ccc(CC(=O)NNC(=O)CCc2ccccc2)cc1OC	inactive
Cc1cc(Cl)c(Cl)cc1S(=O)(=O)NCCCn1ccnc1	inactive
CC12CCC(C(=O)N(CCCN3CCN(Cc4ccccc4)CC3)C1=O)C2(C)C (stereo not given)	inactive
CCOC(=O)/C=C/C(=O)OCC(=O)Nc1ccc([N+](=O)[O-])cc1	inactive
O=C(CN1C(=O)NC2(CCCC2)C1=O)Nc1ccc(F)c(F)c1F	inactive
COc1cccc(N2CCN(C(=O)c3ccc(-c4ccccc4)cc3)CC2)c1	inactive
O=C(NCCN1C(=O)S/C(=C\c2ccc(Cl)c(Cl)c2)C1=O)C1COc2ccccc2O1 (stereo not given)	inactive
COc1ccc(C(=O)N2CCCc3ccccc32)cc1Br	inactive
O=C(NCCc1ccccc1)C1CCC(=O)N(CCCN2CCCC2=O)C1 (stereo not given)	inactive
CN(Cc1nccn1C)C(=O)c1cc(COc2ccc3ncccc3c2)on1	inactive
CCCSC1=N/C(=C\c2ccc([N+](=O)[O-])o2)C(=O)S1	inactive
CC(C)CNC(=O)CN1C(=O)NC(Cc2c[nH]c3ccccc23)C1=O (stereo not given)	inactive
O=C(CNCc1ccccc1)Nc1ccc(F)cc1	inactive
O=C(COC(=O)c1ccccc1C(=O)N1CCN(c2ccccc2)CC1)NCc1ccccc1	inactive
CC(=O)Nc1sc2c(c1C(c1ccccn1)N1CCN(C)CC1)CCCC2 (stereo not given)	inactive
CC1Cc2ccccc2N1C(=O)CNc1ccccc1N1CCCCC1 (stereo not given)	inactive
NC(=O)C1CCN(c2ncccc2[N+](=O)[O-])CC1	inactive
c1ccc2[nH]c(CCNC3CCCCC3)nc2c1	inactive
Cc1ccc2nc(CSc3nnc(-c4ccncc4)n3C)cc(=O)n2c1	inactive
O=C(c1ccccc1)c1c2c(cc3sc4ccccc4[n+]13)-c1cccc3cccc-2c13	inactive
CCCOc1ccc(S(=O)(=O)Nc2ccccn2)c2ccccc12	inactive
O=C(Nc1ccccc1Cl)Nc1cccnc1Cl	inactive
